ChEMBL document CHEMBL5620382, “Fluoroindole chalcone analogues targeting the colchicine binding site of tubulin for colorectal oncotherapy” (Eur J Med Chem, 2023)
Active and inactive are the calls of the source. No cut-off for these calls is given here.

Legend:
HCT-116 [1] = experiment: Antiproliferative activity against human HCT116 cells assessed as inhibition of proliferation measured after 24 hrs by CCK-8 assay; format: functional, cell-based; conditions: HCT-116, 24 h
CT26 [2] = experiment: Antiproliferative activity against mouse CT26 cells assessed as inhibition of proliferation measured after 24 hrs by CCK-8 assay; format: functional, cell-based; conditions: CT26, 24 h
NCM460 = experiment: Antiproliferative activity against human NCM460 cells assessed as inhibition of proliferation at 2.5 to 20 nM measured after 24 hrs by CCK-8 assay; format: toxicity, cell-based; conditions: ncm460, 24 h, 0.02 µM, dose 2.5-20 nM
CT26 [3] = experiment: Induction of apoptosis in mouse CT26 cells assessed as dead cells at 2.5 to 40 nM measured after 24 hrs by PI/Annexin V-FITC staining based flow cytometry; format: functional, cell-based; conditions: dose 2.5-40 nM
[4] = Toxicity in BALB/c mouse xenografted with human HCT116 cells assessed as side effects at 1.5 to 3 mg/kg, ip thrice a week for three weeks; format: organism-based, HCT-116; conditions: in vivo, 504 h, dose 1.5-3 mg/kg, time 3 weeks
HCT-116 [5] = experiment: Anti-tumor activity against human HCT-116 cells xenografted in BALB/c mouse assessed as increase in necrotic area in tumor section at 3 mg/kg, ip thrice a week for three weeks by H and E staining based assay; format: functional, organism-based; conditions: time 3.0 weeks
[6] = Toxicity in BALB/c mouse xenografted with human HCT-116 cells assessed as organ toxicity at 3 mg/kg, ip thrice a week for three weeks by […]; format: organism-based; conditions: in vivo, 504 h, time 3 weeks
CT26 [7] = experiment: Induction of cell cycle arrest in mouse CT26 cells […] assessed as accumulation of cells at G2/M phase at 2.5 to 10 nM by flow cytometry analysis; format: functional, cell-based; conditions: dose 2.5-10 nM
Tubulin (Homo sapiens) [8] = target: T1, Tubulin (Homo sapiens) (UniProt P68371+Q9H4B7+P0DPH7+P68366+Q13509+Q71U36+P04350+Q3ZCM7+P07437+P68363+Q9BQE3+Q6PEY2+Q13885+Q9BVA1+Q9BUF5); experiment: Induction of microtubule stabilization in human HCT-116 cells at […] using 1:300 ratio of cell lysate/pronase incubated for 2 hrs by drug affinity reactive target stabilization (DARTS) assay; format: subcellular
Tubulin (Homo sapiens) [9] = target: T1, Tubulin (Homo sapiens); experiment: Stabilization of microtubule in human HCT-116 cells at […] incubated for 1 hrs by CETSA; format: cell-based
Homo sapiens = organism: Homo sapiens; experiment: Binding affinity to tubulin mutant (unknown origin) by MST analysis
Tubulin (Homo sapiens) [10] = target: T1, Tubulin (Homo sapiens); experiment: Inhibition of tubulin polymerization (unknown origin); format: protein-complex assay; conditions: dose 12.5-100 µM
Tubulin (Homo sapiens) [11] = target: T1, Tubulin (Homo sapiens); experiment: Disruption of microtubule assembly in human HCT-116 cells assessed as reduced/disorganized microtubule network measured after 24 hrs by high-resolution microscopy; format: cell-based
HCT-116 [12] = experiment: Induction of endoplasmic reticulum (ER) stress in human HCT-116 cells assessed as organelle vacuoles at 10 to 20 nM measured after 24 hrs by transmission electron microscope (TEM) analysis; format: functional, cell-based; conditions: dose 10-20 nM
HCT-116 [13] = experiment: Induction of endoplasmic reticulum (ER) stress in human HCT-116 cells assessed as rough long-linear and irregularly dilated with locally verified expansion at 10 to 20 nM measured after 24 hrs by transmission electron microscope (TEM) analysis; format: functional, cell-based; conditions: dose 10-20 nM
CT26 [14] = experiment: Disruption of microtubule assembly in mouse CT26 cells assessed as reduced/disorganized microtubule network measured after 24 hrs by high-resolution microscopy; format: functional, cell-based
CT26 [15] = experiment: Induction of endoplasmic reticulum (ER) stress in mouse CT26 cells assessed as rough long-linear and irregularly dilated with locally verified expansion at 10 to 20 nM measured after 24 hrs by transmission electron microscope (TEM) analysis; format: functional, cell-based; conditions: dose 10-20 nM
HCT-116 [16] = experiment: Induction of endoplasmic reticulum (ER) stress in human HCT-116 cells assessed as increase p-PERK expression at 10 to 20 nM measured after 24 hrs by Western blot analysis; format: functional, cell-based; conditions: dose 10-20 nM
HCT-116 [17] = experiment: Induction of endoplasmic reticulum (ER) stress in human HCT-116 cells assessed as increase p-eIF2alpha expression at 10 to 20 nM measured after 24 hrs by Western blot analysis; format: functional, cell-based; conditions: dose 10-20 nM
HCT-116 [18] = experiment: Induction of endoplasmic reticulum (ER) stress in human HCT-116 cells assessed as increase p-IRE1alpha expression at 10 to 20 nM measured after 24 hrs by Western blot analysis; format: functional, cell-based; conditions: dose 10-20 nM
CT26 [19] = experiment: Induction of endoplasmic reticulum (ER) stress in mouse CT26 cells assessed as increase p-eIF2alpha expression at 10 to 40 nM measured after 24 hrs by Western blot analysis; format: functional, cell-based; conditions: dose 10-40 nM
HCT-116 [20] = experiment: Cytotoxicity against human HCT-116 cells assessed as growth inhibition measured after 24 hrs in presence of GSK2606414 PERK inhibitor by CCK-8 assay; format: functional, cell-based
CT26 [21] = experiment: Induction of mitochondrial damage in mouse CT26 cells at 10 to 40 nM measured after 24 hrs by transmission electron microscope (TEM) analysis; format: functional, cell-based; conditions: dose 10-40 nM
HCT-116 [22] = experiment: Induction of endoplasmic reticulum (ER) stress in human HCT-116 cells assessed as increase in ROS level at 10 to 20 nM measured after 24 hrs by DCFH-DA analysis; format: functional, cell-based; conditions: dose 10-20 nM
HCT-116 [23] = experiment: Induction of endoplasmic reticulum (ER) stress in human HCT-116 cells assessed as increase in ROS level at 20 nM measured after 24 hrs by fluorescent analysis (reference value: 12%); format: functional
HCT-116 [24] = experiment: Induction of mitochondrial dysfunction in human HCT-116 cells assessed as change in mitochondrial membrane potential (MMP) by JC-1 fluorescence assay; format: functional, cell-based; conditions: dose 1.25-20 µM
CT26 [25] = experiment: Induction of mitochondrial dysfunction in mouse CT26 cells assessed as change in mitochondrial membrane potential (MMP) by JC-1 fluorescence assay; format: functional, cell-based; conditions: dose 2.5-40 µM
HCT-116 [26] = experiment: Induction of mitochondrial dysfunction in human HCT-116 cells assessed as reduction in oxygen consumption rate (OCR) incubated for 24 hrs; format: functional, cell-based; conditions: dose 1.25-20 µM
HCT-116 [27] = experiment: Induction of endoplasmic reticulum (ER) stress in human HCT-116 cells assessed as increase in ROS level at 10 nM measured after 24 hrs by fluorescent analysis (reference value: 12%); format: functional
CT26 [28] = experiment: Induction of endoplasmic reticulum (ER) stress in mouse CT26 cells assessed as increase in ROS level at 20 nM measured after 24 hrs by fluorescent analysis (reference value: 14%); format: functional
Colon cancer organoid = experiment: Antitumor activity against patient-derived Colorectal cancer organoid model assessed as inhibition of organoid growth by immunofluorescence assay; format: functional, tissue-based; conditions: Homo sapiens
[29] = Toxicity in C57BL/6-APCmin/+ mouse model assessed as change in body weight at 3 mg/kg, ip treated for 45 days; format: organism-based; conditions: in vivo, 1080 h, time 45 day
Mus musculus [30] = experiment: Antitumor activity against C57B/6-APCmin/+ mouse model assessed as increase in phosphorylation of eIF2alpha in tumors at 3 mg/kg, ip treated for 45 days relative to control; format: functional, organism-based; conditions: time 45.0 day
Mus musculus [31] = experiment: Antitumor activity against C57B/6-APCmin/+ mouse model assessed as increase in phosphorylation of IRE1alpha in tumors at 3 mg/kg, ip treated for 45 days relative to control; format: functional, organism-based; conditions: time 45.0 day

COc1cc(C(=O)/C(C)=C/c2c[nH]c3cc(F)ccc23)cc(OC)c1OC
IC50 (HCT-116 [1]): 4.52 nM
IC50 (CT26 [2]): 18.7 nM
Activity (NCM460): Non-Toxic
Activity (CT26 [3]): Active
Activity [4]: Non-Toxic
Activity (HCT-116 [5]): Active
Activity [6]: Non-Toxic
Activity (CT26 [7]): Active
Activity (Tubulin (Homo sapiens) [8]): Active
Activity (Tubulin (Homo sapiens) [9]): inactive
Activity (Homo sapiens): inactive
inhibition (Tubulin (Homo sapiens) [10]): Dose-Dependent Effect
Activity (Tubulin (Homo sapiens) [11]): Active
Activity (HCT-116 [12]): Active
Activity (HCT-116 [13]): Active
Activity (CT26 [14]): Active
Activity (CT26 [15]): Active
Activity (HCT-116 [16]): Active
Activity (HCT-116 [17]): Active
Activity (HCT-116 [18]): Active
Activity (CT26 [19]): Active
Activity (HCT-116 [20]): inactive
Activity (CT26 [21]): Active
Activity (HCT-116 [22]): Active
Activity (HCT-116 [23]): 74.4%
Activity (HCT-116 [24]): Dose-Dependent Effect
Activity (CT26 [25]): Dose-Dependent Effect
Activity (HCT-116 [26]): Dose-Dependent Effect
Activity (HCT-116 [27]): 73.8%
Activity (CT26 [28]): 60.1%
IC50 (Colon cancer organoid): 2.06 nM
Activity [29]: Non-Toxic
Activity (Mus musculus [30]): Active
Activity (Mus musculus [31]): Active
